The record followed here is patent US6949533B2, “6,7-Oxygenated steroids and uses related thereto” (Inflazyme Pharmaceuticals Ltd., priority 1996, dated 2005).

Molecules are shown by their SMILES. Where two headings read alike, the source gives them in different places.

Assay [1] relates to passively sensitized rat mast cells (RBL-2H3). The assay is described as follows: antigen-induced release of hexosaminidase from RBL-2H3 cells. In kind it is cell-based. As to conditions: for inhibition at 25 µM: Rattus norvegicus. The procedure:
(§1) The anti-allergic effects of various polyhydroxylated steroids of the present invention were evaluated by measuring their effect on antigen-induced secretion of hexosaminidase from a passively sensitized rat mast cell line (RBL-2H3) and a murine mast cell line (MC/9). The ability of agents to inhibit the release of mast cell granule contents, e.g., histamine and hexosaminidase, is indicative of anti-allergy and/or anti-asthma activity.
(§2) Hexosaminidase is released from the mast cell granule along with histamine and other mediators during antigen challenge. RBL-2H3 and MC/9 cells were grown in culture and passively sensitized to dinitrophenol (DNP) using anti-human-DNP (IgE). Cells were incubated with each compound (25 μM) for 1 hour at 37° C. and then stimulated with 0.1 mg/ml DNP-HSA (antigen) for 15 min. Aliquots of the supernatant were removed and used to measure the amount of hexosaminidase released during challenge with the antigen. The amount of hexosaminidase present in the supernatant was determined calorimetrically by monitoring the enzymatic metabolism of p-nitrophenyl-N-acetyl-β-D-glucosaminide (p-NAG) over a period of 1 hour at 410 nm. The effect of each compound was determined as a percentage of the antigen-induced response (minus background release) obtained in the presence of DMSO alone, as set forth in Tables 2 and 3. These values were used to determine the degrees of inhibition of antigen-induced hexosaminidase release from the cells.

The test system of another assay is mouse mast cells (MC/9). Nature of the assay: antigen-induced release of hexosaminidase from MC/9 cells. It counts as cell-based. As to conditions: for inhibition at 25 µM: Mus musculus, MC9, 25 μM compound, read-out: Percentage Inhibition (mean) MC/9 cells. On the procedure:
as §1, §2

The next assay concerns guinea pig ileum. The assay is described as follows: antigen-induced contraction of ileum from sensitized guinea pigs. As to conditions: Cavia porcellus, read-out: Percentage Inhibition, 30 μM compound, n = 3-4. On the procedure: The ability of compounds to inhibit allergen-induced contraction of ileum from sensitized animals is indicative of antiallergic activity. Sensitized guinea pig ileum is particularly useful in measuring the immediate allergic response.
The guinea pig ileum has been used to evaluate the ability of compounds to inhibit allergan-induced histamine and mediator release causing smooth muscle contraction. Guinea pigs were sensitized by an intraperitoneal injection of 100 mg ovalbumin and an intramuscular injection of 50 mg ovalbumin on day 0, followed by a second intramuscular injection of 50 mg ovalbumin on day 1. […] Segments of ileum were prepared and suspended, with muscle contractions being measured in the longitudinal plane, in Tyrode's buffer at 37° C. and aerated with 5% CO2 in O2. Tissues were suspended under a resting tension of 2 grams and isometric contractions were measured using force-displacement transducers coupled to a polygraph. Tissues were stimulated with 3 μM histamine 3 times to ensure reproducible contractions were obtained. Tissues were then incubated with each compound (30 μM) or 0.15% dimethylsulphoxide (DMSO) as a control, for 20 min, after which time the tissues were challenged with 100 μg/ml ovalbumin. The magnitude of the contraction induced by OA in the presence of each compound was expressed as a percentage of the contraction obtained to 3 μM histamine. The protective effects of the various compounds on OA-induced contraction of guinea pig ileum from sensitized animals are summarized in Table 4.

Setting [2] is: RBL-2H3, 25 μM compound, antigen-induced hexosaminidase release, read-out: Percentage Inhibition (mean) RBL-2H3 Cells.
The mark [3] stands for this setting: RBL-2H3, read-out: Percentage Inhibition (mean) RBL-2H3 Cells.

`CC(C)CCCC(C)C1CCC2C3C(O)C(O)C4CC(O)CCC4(C)C3CCC12C` (stereo not drawn) [Compound 354]: the “Percentage Inhibition (mean) RBL-2H3 Cells” value in assay [1] (25 μM compound, antigen-induced hexosaminidase release) came to 30%. Moreover, the “Percentage Inhibition (mean) MC/9 cells” value in the assay on mouse mast cells (MC/9) (25 μM compound) is on record as 76%.

With `CC[C@H]1CCC2C3C(CC[C@@]21C)[C@@]1(C)C[C@@H](O)C(O)CC1[C@@H](O)[C@@H]3O` (stereo partly drawn) [Compound 360], in assay [1] (setting [2]), the inhibition at 25 µM was found to be 76%. Also, the inhibition at 30 µM with guinea pig ileum was found to be 50.5%.

With `CC1(C)O[C@@H]2C3C(CC[C@]4(C)C(=O)CCC34)[C@@]3(C)CC[C@H](O)CC3[C@H]2O1` (stereo partly drawn) [Compound 331], in the assay on mouse mast cells (MC/9), the inhibition at 25 µM is 5%. In addition, the inhibition at 30 µM with guinea pig ileum amounted to 14.5%.

Take `C/C=C1/CCC2C3C(CC[C@]12C)[C@@]1(C)CCCCC1[C@@H](O)[C@@H]3O` (stereo partly drawn) [Compound 346]: the results for the inhibition at 25 µM (in assay [1] (setting [2]); with mouse mast cells (MC/9)) were 16% and 61%, respectively. Also, in the assay with guinea pig ileum, the inhibition at 30 µM came out at 62.5%.

Take `C/C=C1/CCC2C3CCC4C[C@@H](O)CC[C@]4(C)C3CC[C@]12C` (stereo partly drawn) [Compound 251]: the inhibition at 30 µM in the assay on guinea pig ileum is -10.5%.

On to `C[C@@]12CCCC1C1C(CC2)[C@@]2(C)CC[C@H](O)CC2[C@@H](O)[C@@H]1O` (stereo partly drawn) [Compound 351], for which the inhibition at 25 µM in assay [1] (setting [2]) came to 33.6%. Moreover, in the assay with guinea pig ileum, the inhibition at 30 µM came out at 43.6%.

For `C[C@]12CC[C@H](O)CC1[C@@H](O)[C@H](O)C1C2CC[C@@]2(C)C1CCC21OCCO1` (stereo partly drawn) [Compound 328], the inhibition at 25 µM in assay [1] (setting [2]) is 34.3%.

As for `C/C=C1/CCC2C3C(CC[C@]12C)[C@@]1(C)CCC(=O)CC1[C@@H](O)[C@@H]3O` (stereo partly drawn) [Compound 335], the figures for the inhibition at 25 µM (in assay [1] (setting [2]); in the assay with mouse mast cells (MC/9)) were 56% and 69%, respectively. Also, the inhibition at 30 µM with guinea pig ileum worked out at 30.7%.

In the case of `CC[C@H]1CCC2C3C(CC[C@@]21C)[C@@]1(C)CC[C@@H](O)CC1[C@H]1OC(C)(C)O[C@H]31` (stereo partly drawn) [Compound 361], the inhibition at 25 µM in the assay on mouse mast cells (MC/9) amounted to 13%. The inhibition at 30 µM in the assay with guinea pig ileum was found to be 55%.

Take `CC(C)[C@H]1CC(=O)OC([C@@H](C)C2CC(=O)C3C4CCC5C[C@@H](O)CC[C@]5(C)C4CC[C@@]32C)C1` (stereo partly drawn) [Compound 266]: the inhibition at 25 µM in assay [1] (setting [2]) is -12.5%. The inhibition at 30 µM with guinea pig ileum is 17.4%.

In the case of `C/C=C1/CCC2C3C(CC[C@]12C)[C@@]1(C)CC[C@@H](O)CC1[C@H]1OC(C)(C)O[C@H]31` (stereo partly drawn) [Compound 338], in the assay on guinea pig ileum, the inhibition at 30 µM is 64%.

Consider `CC(C)(C)[Si](C)(C)OC1CC[C@]2(C)C3CC[C@@]4(C)C(CCC45OCCO5)C3[C@@H](O)[C@H](O)C2C1` (stereo partly drawn) [Compound 221], for which the inhibition at 30 µM with guinea pig ileum was 60.7%.

As to `C/C=C1/CCC2C3C(CC[C@]12C)[C@@]1(C)CC[C@@H](Cl)CC1[C@@H](O)[C@@H]3O` (stereo partly drawn) [Compound 337], the inhibition at 25 µM in assay [1] (setting [2]) worked out at 44%; in the assay with mouse mast cells (MC/9), 56%. In addition, the inhibition at 30 µM in the assay on guinea pig ileum came to 50.7%.

On to `C/C=C1/CCC2C3C(CC[C@]12C)[C@@]1(C)CC[C@@H](Cl)CC1[C@H]1OC(C)(C)O[C@H]31` (stereo partly drawn) [Compound 336], for which the inhibition at 30 µM in the assay on guinea pig ileum worked out at 79.3%.

As for `CC(=O)O[C@@H]1C2C(CC[C@@]3(C)C2CCC32OCCO2)[C@@]2(C)CC[C@H](O)CC2[C@H]1OC(C)=O` (stereo partly drawn) [Compound 322], the inhibition at 25 µM in assay [1] (setting [2]) was 25.6%.

Regarding `C[C@]12CC[C@@H](O)[C@H](O)[C@@H]1[C@@H](O)[C@H](O)[C@@H]1[C@@H]2CC[C@]2(C)[C@@H](O)CC[C@@H]12` [Compound 241, 3α,4β,6α,7β,17β-pentahydroxy-5α-androstane], the inhibition at 25 µM in assay [1] (setting [3]) was determined as 22%.

`C[C@H]1CCC2C3C(CC[C@@]21C)[C@@]1(C)CC[C@H](O)CC1[C@@H](O)[C@@H]3O` (stereo partly drawn) [Compound 343]: the inhibition at 25 µM in assay [1] (setting [2]) amounted to 52%; in the assay with mouse mast cells (MC/9) it was 40%. The inhibition at 30 µM with guinea pig ileum came out at 48.9%.

Take `CC(C)C1CC(O)OC(C(C)C2CCC3C4C(CC[C@]23C)[C@@]2(C)CC[C@@H](O)CC2[C@@H](O)[C@@H]4O)C1` (stereo partly drawn) [Compound 306, 22,29-epoxy-3,6,7,29-tetrahydroxystigmastanol]: the inhibition at 25 µM in assay [1] (setting [2]) is 40.5%.

Take `C[C@]12CC[C@H]3O[C@H]3[C@@H]1[C@@H](O)[C@H](O)[C@@H]1[C@@H]2CC[C@]2(C)[C@@H](O)CC[C@@H]12` [Compound 239, 3α,4α-epoxy-6α,7β,17β-trihydroxy-5α-androstane]: the inhibition at 25 µM in assay [1] (setting [3]) came out at 9.6%.
